Results published in patent US4824937A, “Synthetic natriuretic peptides” (501 Advanced Peptide Development, Ltd., priority 1986, dated 1989).
Ends that are not written are not given here.

System: male normotensive Sprague-Dawley rats
Assay: Effects upon electrolyte excretion (Na+, K+, Cl- in urine) after i.v. bolus in anesthetized rats
Type: in vivo, rat
Conditions: 3.5 mcg/kg i.v. bolus, pooled urine of 8 rats
Procedure: The diuretic activities of the synthetic natriuretic peptides (SNP) of this invention and their effects upon electrolyte excretion are determined in male normotensive Sprague-Dawley rats. The animals are anesthetized with sodium pentobarbital (55 mg/kg), the femoral vein is cannulated for injection of the test compound and for infusion of Ringer's solution, the bladder is cannulated for urine collection, and the trachea is cannulated to ensure a clean airway. The animals are infused with Ringer's solution at a rate of 1.2 ml/20 min. for 20 minutes, the infusion rate is then decreased to 1.2 ml/hour for a further 20 minutes, and urine collections are started at the end of that period. Three 10-minute collections are taken as control samples, and at the end of the third 10-minute period the SNP to be tested is injected as a bolus over 30 seconds into the femoral vein. Infusion of Ringer's solution at 1.2 ml/hour is continued for the duration of the experiment, and urine samples are collected every 10 minutes over 4 hours, their respective volumes are determined, and the concentrations of Na^+, Cl^-, and K^+ are measured using a NovaBiomedical electrolyte analyzer. The above determinations are done on samples pooled from all animals in a given experiment, and urine flow is calculated as ml/min./kg body weight while electrolyte concentrations are calculated as mmol/l/gm kidney tissue.
Details of the assay method are described above, and it remains only to be stated that 8 male normotensive Sprague-Dawley rats are used in each group. […] Urine flow then decreases sharply and is at control volumes at about 40 minutes where it remains until about 140 minutes.

Substance: BG-3009: known ANP composed of 28 amino acid residues, identical with the ANP described by Flynn et al. (SLRRSSCFGGRIDRIGAQSGLGCNSFRY; not fully specified; ends and bridges not checked; UniProt P01161 123-150, looked up)
- ELECTROLYTE EXCRETION Cl^- (80 min after injection): 13.0 mmol/l./gm. kidney tissue
- ELECTROLYTE EXCRETION K^+ (80 min after injection): 7.9 mmol/l./gm. kidney tissue
- ELECTROLYTE EXCRETION Na^+ (80 min after injection): 6.5 mmol/l./gm. kidney tissue
- ELECTROLYTE EXCRETION Cl^- (90 min after injection): 13.3 mmol/l./gm. kidney tissue
- ELECTROLYTE EXCRETION K^+ (90 min after injection): 8.0 mmol/l./gm. kidney tissue
- ELECTROLYTE EXCRETION Na^+ (90 min after injection): 6.4 mmol/l./gm. kidney tissue
- ELECTROLYTE EXCRETION Cl^- (100 min after injection): 13.3 mmol/l./gm. kidney tissue
- ELECTROLYTE EXCRETION K^+ (100 min after injection): 8.2 mmol/l./gm. kidney tissue
- ELECTROLYTE EXCRETION Na^+ (100 min after injection): 6.3 mmol/l./gm. kidney tissue
- ELECTROLYTE EXCRETION Cl^- (110 min after injection): 13.1 mmol/l./gm. kidney tissue
- ELECTROLYTE EXCRETION K^+ (110 min after injection): 8.2 mmol/l./gm. kidney tissue
- ELECTROLYTE EXCRETION Na^+ (110 min after injection): 6.5 mmol/l./gm. kidney tissue
- ELECTROLYTE EXCRETION Cl^- (120 min after injection): 13.7 mmol/l./gm. kidney tissue
- ELECTROLYTE EXCRETION K^+ (120 min after injection): 8.5 mmol/l./gm. kidney tissue
- ELECTROLYTE EXCRETION Na^+ (120 min after injection): 6.7 mmol/l./gm. kidney tissue
- ELECTROLYTE EXCRETION Cl^- (130 min after injection): 13.6 mmol/l./gm. kidney tissue
- ELECTROLYTE EXCRETION K^+ (130 min after injection): 8.6 mmol/l./gm. kidney tissue
- ELECTROLYTE EXCRETION Na^+ (130 min after injection): 6.6 mmol/l./gm. kidney tissue
- ELECTROLYTE EXCRETION Cl^- (140 min after injection): 14.8 mmol/l./gm. kidney tissue
- ELECTROLYTE EXCRETION K^+ (140 min after injection): 9.0 mmol/l./gm. kidney tissue
- ELECTROLYTE EXCRETION Na^+ (140 min after injection): 7.0 mmol/l./gm. kidney tissue
- ELECTROLYTE EXCRETION Cl^- (150 min after injection): 15.2 mmol/l./gm. kidney tissue
- ELECTROLYTE EXCRETION K^+ (150 min after injection): 9.4 mmol/l./gm. kidney tissue
- ELECTROLYTE EXCRETION Na^+ (150 min after injection): 7.3 mmol/l./gm. kidney tissue
- ELECTROLYTE EXCRETION Cl^- (160 min after injection): 14.2 mmol/l./gm. kidney tissue
- ELECTROLYTE EXCRETION K^+ (160 min after injection): 9.4 mmol/l./gm. kidney tissue
- ELECTROLYTE EXCRETION Na^+ (160 min after injection): 7.4 mmol/l./gm. kidney tissue
- ELECTROLYTE EXCRETION Cl^- (170 min after injection): 14.4 mmol/l./gm. kidney tissue
- ELECTROLYTE EXCRETION K^+ (170 min after injection): 9.2 mmol/l./gm. kidney tissue
- ELECTROLYTE EXCRETION Na^+ (170 min after injection): 7.7 mmol/l./gm. kidney tissue
- ELECTROLYTE EXCRETION Cl^- (180 min after injection): 14.8 mmol/l./gm. kidney tissue
- ELECTROLYTE EXCRETION K^+ (180 min after injection): 9.1 mmol/l./gm. kidney tissue
- ELECTROLYTE EXCRETION Na^+ (180 min after injection): 8.3 mmol/l./gm. kidney tissue
- ELECTROLYTE EXCRETION Cl^- (190 min after injection): 14.4 mmol/l./gm. kidney tissue
- ELECTROLYTE EXCRETION K^+ (190 min after injection): 8.7 mmol/l./gm. kidney tissue
- ELECTROLYTE EXCRETION Na^+ (190 min after injection): 8.7 mmol/l./gm. kidney tissue
- ELECTROLYTE EXCRETION Cl^- (200 min after injection): 14.7 mmol/l./gm. kidney tissue
- ELECTROLYTE EXCRETION K^+ (200 min after injection): 8.5 mmol/l./gm. kidney tissue
- ELECTROLYTE EXCRETION Na^+ (200 min after injection): 9.2 mmol/l./gm. kidney tissue
- ELECTROLYTE EXCRETION Cl^- (210 min after injection): 15.0 mmol/l./gm. kidney tissue
- ELECTROLYTE EXCRETION K^+ (210 min after injection): 8.4 mmol/l./gm. kidney tissue
- ELECTROLYTE EXCRETION Na^+ (210 min after injection): 9.6 mmol/l./gm. kidney tissue
- ELECTROLYTE EXCRETION Cl^- (220 min after injection): 15.3 mmol/l./gm. kidney tissue
- ELECTROLYTE EXCRETION K^+ (220 min after injection): 8.3 mmol/l./gm. kidney tissue
- ELECTROLYTE EXCRETION Na^+ (220 min after injection): 9.4 mmol/l./gm. kidney tissue
- ELECTROLYTE EXCRETION Cl^- (230 min after injection): 14.8 mmol/l./gm. kidney tissue
- ELECTROLYTE EXCRETION K^+ (230 min after injection): 8.3 mmol/l./gm. kidney tissue
- ELECTROLYTE EXCRETION Na^+ (230 min after injection): 9.2 mmol/l./gm. kidney tissue
- ELECTROLYTE EXCRETION Cl^- (240 min after injection): 15.7 mmol/l./gm. kidney tissue
- ELECTROLYTE EXCRETION K^+ (240 min after injection): 8.5 mmol/l./gm. kidney tissue
- ELECTROLYTE EXCRETION Na^+ (240 min after injection): 9.2 mmol/l./gm. kidney tissue
